In patent US11491147B2, “Combination drug therapy reduces PARP-1 related DNA repair and increases the efficacy of genotoxic agents” (Indiana University Research and Technology Corporation, priority 2016, dated 2022):

Molecular target: T1, TE activity of FASN (Homo sapiens, UniProt P49327)
T1 construct: TE activity assay was performed also as previously described using recombinant TE (Fako et al., 2015)
Test: TE activity assay using recombinant TE
Assay type: biochemical

T1 sequence (P49327 2207-2511 limits assumed): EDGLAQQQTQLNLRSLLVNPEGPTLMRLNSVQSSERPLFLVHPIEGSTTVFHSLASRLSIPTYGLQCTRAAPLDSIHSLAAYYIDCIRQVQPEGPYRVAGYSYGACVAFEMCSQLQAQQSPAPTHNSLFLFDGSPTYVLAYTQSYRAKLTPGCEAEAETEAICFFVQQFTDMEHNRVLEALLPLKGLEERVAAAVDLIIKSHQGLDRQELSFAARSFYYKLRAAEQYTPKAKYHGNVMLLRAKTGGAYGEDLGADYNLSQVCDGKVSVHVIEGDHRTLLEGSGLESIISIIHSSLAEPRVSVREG

Cc1c(OCC(F)(F)F)ccnc1C[S@@+]([O-])c1nc2ccccc2[nH]1 [R-lansoprazole]
inhibition of TE (Ki), R- versus S-enantiomer: significantly more effective than the S-lansoprazole
